As usually defined, the IC50 is the concentration that gives 50% inhibition. What is called CC50 is the concentration that lowers cell viability or growth by half. High values mean better tolerance by the cells, low ones harm at low concentration.

Each structure is given as a SMILES string. Where only a bound is given, the exact number is not on record here.

The values below come from patent US6015820A, “4-Aryl-thio-pyridin-2(1H)-ones, medicines containing them and their uses in the treatment of illnesses linked to HIV” (priority 1995, dated 2000).

For data set [1], the system named is HIV-1 LAI. Kind of data set: anti-HIV-1 activity: replication of HIV-1 LAI on CEM-SS cells. The note with it: Table 2, HIV-1 LAI, CEM-SS cells; for IC50: Human immunodeficiency virus 1, 120 h, 5 days, read-out: IC50, anti-HIV-1 activity. Type of data set: cell-based. On the procedure: The CEM-SS and the HIV-1 resistant to Nevirapine (N119) carrying a point mutation at codon 181 of the IT, were supplied respectively by P. NARA and D. RICHMAN through the intermediary of the AIDS Research and Reference Reagent Program, Division of AIDS, NIAID, NIH (USA) (Catalogue references : No. 776 and No. 1392).
(§1) The virus production was measured by quantifying the activity of the inverse transcriptase associated with viral particles released into the culture supernatant. In short, cells were infected with 100 TCID50 for 30 minutes; after adsorption of the virus, unbound particles were removed by two washings and the cells were cultivated in the presence of different concentrations of the compounds tested for 5 days before determining the viral production. The concentration inhibiting 50% of the viral multiplication (IC50) came from the computer plot of the median effect of the dose effect results (Chou et al. Elsevier Science Publishers, Cambridge U.K. (1985), 19-28).

The target of data set [2] is IT of HIV-2 (Human immunodeficiency virus type 2 (ISOLATE ROD), UniProt P04584). The experiment in a line: inhibition of the inverse transcriptase of HIV-2. The following applies: at concentrations at which the IT of HIV-1 was well inhibited (FIG. 9). It is filed as biochemical. Here is the method: The system for the expression of the IT of HIV-2 in E.coli (B. Muller et al. (1991 J. Biol. Chem. 266, 14708-14713) was provided by Dr. R. Goody. The IT of the HIV-2 was purified in the same way as the IT of the HIV-1.
IT of HIV-2, sequence (P04584 613-1171): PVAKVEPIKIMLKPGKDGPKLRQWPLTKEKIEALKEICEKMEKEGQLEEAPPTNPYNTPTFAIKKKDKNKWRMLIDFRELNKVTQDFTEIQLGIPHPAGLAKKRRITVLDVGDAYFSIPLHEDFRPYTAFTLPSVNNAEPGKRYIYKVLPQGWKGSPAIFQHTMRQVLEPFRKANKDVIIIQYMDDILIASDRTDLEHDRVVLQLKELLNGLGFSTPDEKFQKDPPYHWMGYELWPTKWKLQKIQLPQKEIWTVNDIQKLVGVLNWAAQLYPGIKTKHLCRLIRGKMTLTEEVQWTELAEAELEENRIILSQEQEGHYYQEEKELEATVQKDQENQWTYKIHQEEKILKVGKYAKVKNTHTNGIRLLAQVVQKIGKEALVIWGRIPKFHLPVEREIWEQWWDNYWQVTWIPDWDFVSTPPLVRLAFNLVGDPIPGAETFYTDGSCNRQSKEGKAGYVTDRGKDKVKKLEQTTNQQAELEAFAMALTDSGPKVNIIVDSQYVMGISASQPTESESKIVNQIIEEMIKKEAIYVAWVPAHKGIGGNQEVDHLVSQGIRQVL
(§2) Incubation was carried out at 37° C. for 10 minutes in the presence of various matrix-primers.
(§3) a) Poly C-oligo dG: the reaction mixture contained a final volume of 0.05 ml, Tris-HCl 50 mM pH 8.0, MgCl2 5 mM, dithiothreitol 4 mM, 0.48 A260 /ml of poly C-oligo dG (5:1), 1.0 μCi of [^3 H]dGTP (28 Ci/mmole), dGTP 2 μM, KCl 80 mM, 1 μg of bovine serum albumin and IT 20-50 nM.
(§4) b) Poly A-oligo dT: the same conditions as in a), except that 0.48 A260 /ml of poly A-oligo dT (5:1), 0.5 μCi of [^3 H]dTTP (46 Ci/mmole), dTTP 20 μM were used.
(§5) The reactions were stopped by adding in the cold 1 ml of 10% trichloroacetic acid plus sodium pyrophosphate 0.1 M. The precipitates were filtered through nitrocellulose membranes, washed with 2% trichloroacetic acid, dried and counted in a PPO/POPOP/toluene scintillation mixture.
(§6) All the compounds were dissolved in dimethyl#sulphoxide (DMSO). The test samples were prepared in the presence of the same final concentration of DMSO. IC50 is the concentration required to inhibit the activity of the IT of the recombinant HIV-1 by 50%.

Data set [3] is described as follows: cytotoxicity on non-infected cells (MTT test). Type of data set: cell-based. The following applies: human; Table 2; non-infected CEM-SS cells, MTT, 5 days. On the procedure:
(§7) In parallel experiments, the cytotoxicity of the molecules was measured on non-infected cells, after an incubation of 5 days in the presence of these molecules, by using a […] titration (MTT test) based on the ability of the mitochondrial dehydrogenases of the living cells to reduce 3-(4,5-dimethylthiazol-2-yl)-2,5-diphenyltetrazolium bromide in formazan (Mosmann et al. J. Immunol. Methods ([…]), 65, 55-63). The concentration cytotoxic at 50% (CC50) is the concentration at which the DO540 has been reduced to half and is calculated by using the program mentioned above.
A general note: Formazan colour is commonly taken as a measure of viable cells.

The test system of data set [4] is CEM-SS cells. The experiment in a line: cytotoxicity on non-infected cells (MTT test). It is filed as cell-based. The note with it: Table 3; non-infected cells, MTT, 5 days. Here is the method: as §7
Data set [5] deals with inverse transcriptase of HIV-1 (HIV-1 M:B_ARV2/SF2, UniProt P03369). The experiment in a line: enzymatic kinetic analysis of IT inhibition (Lineweaver-Burk). Type of data set: biochemical. On the procedure:
FIG. 12 is a double-reciprocal (Lineweaver-Burk) representation of the inhibition of the inverse transcriptase of HIV-1 by compound 7c with the poly C-oligo dG as a matrix-primer couple and dGPT as substrate.
FIG. 13 is a double-reciprocal representation, similar to […], in which the poly A-oligo dT is used as a matrix-primer couple and dTTP as substrate.
as §2, §3, §4, §5

In data set [6] the target is T1, IT of recombinant HIV-1 (Human immunodeficiency virus type 1 group M subtype B, UniProt P03369).
T1 construct: purify the IT enzyme of the recombinant HIV-1; made in house; host or cells: yeast cells transformed with the pAB 24/IT-4 vector
Kind of data set: inhibition of the inverse transcriptase of recombinant HIV-1. Type of data set: biochemical. On the procedure:
Yeast cells transformed with the pAB 24/IT-4 vector were used to purify the IT enzyme of the recombinant HIV-1 as described by Sallafranque-Andreola et al. (1989 Eur. J. Biochem. 184, 364-374).
as §2, §3, §4, §5, §6

Data set [7] has as its system HIV-1 resistant to Nevirapine (N119). Kind of data set: microbe, parasite or virus in culture. Type of data set: cell-based. The note with it: for IC50: Human immunodeficiency virus 1, CEM-SS, read-out: IC50, strain resistant to Nevirapine; for SI (selectivity index): Table 3, strain resistant to Nevirapine. On the procedure: The effects of the compounds were evaluated on the replication of HIV-1 (see Table 2) on CEM-SS cells (cell lines of the lymphocytic lineage) strongly infected with HIV-1 LAI as described by Moog et al. (Antiviral Research (1994), 24, 275-288). The CEM-SS and the HIV-1 resistant to Nevirapine (N119) carrying a point mutation at codon 181 of the IT, were supplied respectively by P. NARA and D. RICHMAN through the intermediary of the AIDS Research and Reference Reagent Program, Division of AIDS, NIAID, NIH (USA) (Catalogue references : No. 776 and No. 1392).
as §1

On to `CCc1c(C)nc(O)c(N)c1Sc1cc(C)cc(C)c1` [Compound 8c, 3-amino-5-ethyl-6-methyl-4-(3', 5'-dimethylphenyl)thio-pyridin-2(1H)-one], for which the IC50 in data set [1] is 14 nM; in data set [6] it was 15 nM; in data set [7], 2100 nM. The entries for the “SI (selectivity index)” value in data set [1] and in data set [7] were > 714 and > 4, respectively. Further, the “effect on activity of the IT of HIV-2” value in data set [2] is on record as “not affected”. Further, the CC50 at 120 h in data set [3] is > 10000 nM. The CC50 in data set [4] was > 10000 nM. The type of inhibition entry in data set [5] (as regards dGTP substrate, poly C-oligo dG matrix-primer (FIG. 12)) is recorded as “non-competitive”; in data set [5] (poly A-oligo dT matrix-primer, dTTP substrate (FIG. 13)) it was “competitive”. The “effect on activity of the IT of HIV-1 in HIV-1/HIV-2 comparison” value in data set [6] (FIG. 9) is on record as “well inhibited”. Besides, the “IT inhibition according to matrix-primer couple” value in data set [6] (poly C-oligo dG compared with poly A-oligo dT (FIG. 9)) was “gave the same result”.
As to `Cc1cc(C)cc(Sc2c(C)cnc(O)c2[N+](=O)[O-])c1` [Compound 7a, 5-methyl-3-nitro-4-(3', 5'-dimethylphenyl)thiopyridin-2(1H)-one], the IC50 in data set [1] was 120 nM; in data set [6] it was > 10000 nM; in data set [7], > 10000 nM. Further, the “SI (selectivity index)” value in data set [1] is on record as > 83. The CC50 at 120 h in data set [3] was > 10000 nM. For the same compound, the CC50 in data set [4] was > 10000 nM.
With `Cc1cc(C)cc(Sc2c(C)cnc(O)c2N)c1` [Compound 8a, 3-amino-5-methyl-4-(3', 5'-dimethylphenyl)-thio-pyridin-2(1H)-one], the IC50 in data set [1] is 10 nM; in data set [6], 100 nM; in data set [7], > 10000 nM. The “SI (selectivity index)” value in data set [1] was > 1000. Besides, in data set [3], the half-maximal cytotoxic concentration (CC50) at 120 h was > 10000 nM. For the same compound, the CC50 in data set [4] is > 10000 nM.
Turning to `CCOC(=O)c1c(Sc2cc(C)cc(C)c2)c(CC)c(C)[nH]c1=O` [Compound 15, 5-ethyl-6-methyl-3-carbethoxy-4-(3', 5'-dimethylphenyl)thio-pyridin-2(1H)-one], the IC50 in data set [1] amounted to 3 nM; in data set [6], 600 nM; in data set [7], 2200 nM. For the same compound, the “SI (selectivity index)” value is > 3333 in data set [1] and > 4.5 in data set [7]. Further, the CC50 at 120 h in data set [3] was > 10000 nM. Also, in data set [4], the CC50 was > 10000 nM.
